In doi:10.1101/810010v1 (biorxiv, 2019) one finds Kd data, which are given here for 1 molecule.

Molecules are shown by their SMILES.

The assay addresses Syt1 C2B (Mus musculus, UniProt P46096). Description: […]-1H HSQC NMR titration, global fit of chemical shifts, single-site model. It is filed as binding.

Syt1 C2B, sequence (P46096 271-421): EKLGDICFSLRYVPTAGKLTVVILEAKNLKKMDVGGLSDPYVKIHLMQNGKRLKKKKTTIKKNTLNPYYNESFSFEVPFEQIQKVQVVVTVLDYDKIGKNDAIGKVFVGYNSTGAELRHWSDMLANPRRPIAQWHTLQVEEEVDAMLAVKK

Consider `CCCC(=O)OC[C@H](COP(=O)(O)O[C@@H]1[C@H](O)[C@H](O)[C@@H](OP(=O)(O)O)[C@H](OP(=O)(O)O)[C@H]1O)OC(=O)CCC` [di-C4-PtdIns(4,5)P2], for which the Kd (commonly a measure of binding affinity in units of concentration) was determined as 215 ± 16 µM.
